Reference: patent US4155930A, “Ureylene phenylene anionic naphthalenesulfonic acids” (American Cyanamid Company, priority 1978, dated 1979)
Where a name gives a salt, the structure may show the parent alone.

Test system: shunt pathway
Assay: Test Code 036 (C-Shunt inhibitor), lysis of fragile human erythrocytes in autologous serum, cobra venom factor activated
Assay type: biochemical
Parameters: key: N=Negative (no activity)
Conditions: serial two-fold dilution assay; higher well number indicates higher activity; N = negative
Source text: An active inhibitor protects C2 from C1 and C4; (ii) Test Code 035 (C3-C9 inhibitor)--This test determines the ability of the late components of human complement (C3-C9) to lyse EAC 142 in the presence of appropriate dilutions of the test compound. An active inhibitor products EAC 142 from lysis by human C3-C9; (iii) Test Code 036 (C-Shunt inhibitor)--In this test human erythrocytes rendered fragile are lysed in autologous serum via the shunt pathway activated by cobra venom factor in the presence of appropriate dilutions of the test compound. Inhibition of the shunt pathway results in failure of lysis; (iv) Forssman Vasculitis Test--Here, the well known complement dependent lesion, Forssman vasculitis, is produced in guinea pigs by intradermal injection of rabbit anti-Forssman antiserum. The lesion is measured in terms of diameter, edema and hemorrhage and the extent to which a combined index of these is inhibited by prior intraperitoneal injection of the test compound at 200 mg/kg is then reported, unless otherwise stated; (v) Forssman Shock Test--Lethal shock is produced in guinea pigs by an i.v. injection of anti-Forssman antiserum and the harmonic mean death time of treated guinea pigs is compared with that of simultaneous controls; (vi) Complement Level Reduction Test--In this test, the above dosed guinea pigs, or others, are bled for serum and the complement level is determined in undiluted serum by the capillary tube method of U.S. Pat. No. 3,876,376 and compared to undosed control guinea pigs; and (vii) Cap 50 Test--Here, appropriate amounts of the test compound are added to a pool of guinea pig serum in vitro, after which the undiluted serum capillary tube assay referred to above is run. The concentration of compound inhibiting 50% is reported.

| Structure (SMILES) | Shunt Inhibition 036* Wells |
| --- | --- |
| Cc1ccc(S(=O)(=O)Nc2ccc(S(=O)(=O)[O-])c3cc(S(=O)(=O)[O-])cc(S(=O)(=O)[O-])c23)cc1NS(=O)(=O)c1cccc(NC(=O)Nc2cccc(S(=O)(=O)Nc3cc(S(=O)(=O)Nc4ccc(S(=O)(=O)[O-])c5cc(S(=O)(=O)[O-])cc(S(=O)(=O)[O-])c45)ccc3C)c2)c1.[Na+].[Na+].[Na+].[Na+].[Na+].[Na+] [8,8'-[Ureylenebis[(m-phenylenesulfonylimino)(4-methyl-3,1-phenylenesulfonyl)imino]]di-1,3,5-naphthalenetrisulfonic acid, hexasodium salt] | N |
| O=C(Nc1cccc(S(=O)(=O)Nc2cccc(S(=O)(=O)Nc3cc(S(=O)(=O)O)cc4cc(S(=O)(=O)O)cc(S(=O)(=O)O)c34)c2)c1)Nc1cccc(S(=O)(=O)Nc2cccc(S(=O)(=O)Nc3cc(S(=O)(=O)O)cc4cc(S(=O)(=O)O)cc(S(=O)(=O)O)c34)c2)c1 [8,8'-[Ureylenebis[[(1,3-phenylenesulfonylimino)-1,3-phenylenesulfonyl]imino]]di-1,3,6-naphthalenetrisulfonic acid, hexasodium salt] | +1 Wells |
| Cc1ccc(NC(=O)Nc2ccc(C)c(S(=O)(=O)Nc3ccc(C)c(S(=O)(=O)Nc4cc(S(=O)(=O)[O-])cc5cc(S(=O)(=O)[O-])cc(S(=O)(=O)[O-])c45)c3)c2)cc1S(=O)(=O)Nc1ccc(C)c(S(=O)(=O)Nc2cc(S(=O)(=O)[O-])cc3cc(S(=O)(=O)[O-])cc(S(=O)(=O)[O-])c23)c1.[Na+].[Na+].[Na+].[Na+].[Na+].[Na+] [8,8'-[Ureylenebis[[[(6-methyl-3,1-phenylene)sulfonyl]imino]-[[(6-methyl-3,1-phenylene)sulfonyl]imino]]]di-1,3,6-naphthalenetrisulfonic acid, hexasodium salt] | N |
